Experimental data: patent publication US20210221822A1, “TRICYCLIC DERIVATIVES INHIBITOR, PREPARATION METHOD, AND APPLICATIONS THEREOF” (Jiangsu Hansoh Pharmaceutical Group Co., Ltd., priority 2018, published 2021)
Like-named read-outs stand apart in the source and are kept apart here. Each block holds one compound with its values, some of them ahead of it.

Tests used:
[1] = system: PI3Kα mutant cancer cells HGC-27 (E542K); test: Cell Titer-Glo proliferation inhibition, HGC-27; assay type: cell-based; settings: Homo sapiens, 48 to 96 hours
Procedure: (§1) Experimental method: The proliferation inhibitory effect of the compounds of the examples on PI3Kα mutant cancer cell lines HCC1954, HGC-27 and MKN1 was determined by Cell Titer-Glo method. The cell lines were cultured in RPMI 1640 medium (Gibco #22400089) containing 10% FBS (Gibco #10091148) and 1% P/S (Hyclone #SV30010) at 37° C. and 5% CO2. Before the experiment, the cells were collected and counted, and then the cell density was adjusted. The cells were inoculated in a white 96-well plate (Corning #3610) at a density of 1000 to 10000 cells/well, and incubated in an incubator at 37° C., 5% CO2 overnight. The compound solution of different concentrations was added, and corresponding vehicle control was set at the same time. The cell plate was further incubated in an incubator at 37° C., 5% CO2 for 48 to 96 hours. The cell plate and its content were equilibrated to room temperature. 20 to 100 μL of Cell Titer-Glo solution (Promega #G7573) was added to each well, and the plate was shaked well and incubated at room temperature in the dark for 5 to 30 minutes. The chemiluminescence value was measured by the BioTek SynergyH1 microplate reader.
(§2) The percentage inhibition data of the well treated by the compounds of the examples was calculated through the vehicle control well on the plate {% inhibition rate=100−(test compound value/vehicle control value)×100}. The IC50 value was calculated by fitting the data of different concentrations and corresponding percentage inhibition rates to a four-parameter nonlinear logic formula with GraphPad prism.

PI3Kα = target: T1, PI3Kα (Homo sapiens, UniProt P42336); test: ADP-Glo lipid kinase assay, PI3Kα kinase activity; assay type: biochemical; settings: for IC50: ADP-Glo, 0.1 nM enzyme, 120 min, 50 μM ATP; for Selectivity of PI3Kα vs PI3Kβ: ratio of IC50 PI3Kβ to IC50 PI3Kα; for Selectivity of PI3Kα vs PI3Kγ: ratio of IC50 PI3Kγ to IC50 PI3Kα; for Selectivity of PI3Kα vs PI3Kδ: ratio of IC50 PI3Kδ to IC50 PI3Kα
T1 construct: purchased Promega V1721
Procedure: (§3) Experimental method: Promega's ADP-Glo lipid kinase assay method (Promega #V9102) was applied in this experiment. Lipid kinase PI3Kα/β/γ/δ catalyzed the generation of ADP from ATP in the presence of the substrate PIP2: 3PS and ATP. The lipid kinase activity was characterized by measuring the ADP content in the reaction, and the half inhibitory concentration IC50 of the compound on inhibiting PI3Kα/β/γ/δ kinase activity was thus obtained.
(§4) The kinase reaction was carried out in a white 384-well plate (Perkin Elmer #6007299). 2 μL of the compound solution of different concentrations diluted with ddH2O containing 1% DMSO was added to each well. 2 μL of ddH2O containing 1% DMSO was added to the positive control well. 2 μL of 0.1-2 nM PI3K kinase solution diluted with 5× kinase buffer (HEPES 250 mM, MgCl2 15 mM, NaCl 250 mM, BSA 0.05%) was added to each well. 2 μL of 5× kinase buffer was added to the negative control well. 4 μL of 50 μM substrate PIP2: 3PS (Promega #V1701) formulated with 10× Dilution buffer and ddH2O was added to all wells. Finally, 2 μL of […] ATP solution diluted with water was added to start the reaction. After the reaction was carried out at room temperature for 90 to 120 minutes, 10 μL of ADP-Glo Reagent (containing 10 mM MgCl2) was added to each well, and reacted at room temperature for 60 minutes to remove excess ATP in the reaction. 20 μL of Kinase Detection Reagent was added to each well, and reacted at room temperature in the dark for 20 minutes. The chemiluminescence value was measured by the BioTek Synergy H1 microplate reader.
(§5) The percentage inhibition data of the compound-treated well was calculated through the positive control well (DMSO control well) and negative control well (no kinase added) on the plate {% inhibition rate=100−[(test compound value−negative control value)]/(positive control value−negative control value)×100}. The IC50 value was calculated by fitting the data of different concentrations and corresponding percentage inhibition rates to a four-parameter nonlinear logic formula with GraphPad prism.

[2] = system: PI3Kα mutant cancer cells HCC1954 (H1047R); test: Cell Titer-Glo proliferation inhibition, HCC1954; assay type: cell-based; settings: Homo sapiens, 48 to 96 hours
Procedure: as §1, §2

PI3Kγ = target: T2, PI3Kγ (Homo sapiens, UniProt P48736); test: ADP-Glo lipid kinase assay, PI3Kγ kinase activity; assay type: biochemical; settings: 0.4 nM enzyme, 120 min, 50 μM ATP
T2 construct: purchased Thermofisher PV4786
Procedure: as §3, §4, §5

PI3Kβ = target: T3, PI3Kβ (Homo sapiens, UniProt P42338); test: ADP-Glo lipid kinase assay, PI3Kβ kinase activity; assay type: biochemical; settings: 0.4 nM enzyme, 90 min, 100 μM ATP
T3 construct: purchased Carna 11-102
Procedure: as §3, §4, §5

PI3Kδ = target: T4, PI3Kδ (Homo sapiens, UniProt O00329); test: ADP-Glo lipid kinase assay, PI3Kδ kinase activity; assay type: biochemical; settings: 0.1 nM enzyme, 90 min, 100 μM ATP
T4 construct: purchased Carna 11-103
Procedure: as §3, §4, §5

[3] = system: PI3Kα mutant cancer cells MKN1 (E545K); test: Cell Titer-Glo proliferation inhibition, MKN1; assay type: cell-based; settings: Homo sapiens, MKN-1, 48 to 96 hours
Procedure: as §1, §2

[4] = Toxicity test of a 7-day repeatedly intragastric administration in SD rats; assay type: in vivo
Text: (§6) 1) In the experiment, 112 rats (56 rats/sex) were divided into 14 groups by sex and body weight, wherein 70 rats were used for toxicology study (groups 1 to 7, 5 rats/sex/group) and 42 rats were used for toxicokinetics study (groups 8 to 14, 3 rats/sex/group).
2) As the vehicle control group, the animals in groups 1 and 8 were intragastrically administered 20% aqueous SBE-(3-CD (Captisol) solution.
(§7) 3) The animals in groups 2 and 9, groups 3 and 10, and groups 4 and 11 were intragastrically administered GDC-0077 at 10, 30 and 60 mg/kg, respectively.
(§8) 4) The animals in groups 5 and 12, groups 6 and 13, and groups 7 and 14 were intragastrically administered the compound of Example 51 at 10, 30 and 60 mg/kg, respectively.
(§9) 5) The animals were administered once a day for 7 consecutive days (the animals in groups 7 and 14 were administered for 6 consecutive days).
6) The administration volume was 10 mL/kg.
(§10) 7) During the experiment, items such as clinical observation, body weight, food intake, clinicopathological indicators (blood cell count, coagulation function, blood biochemistry), toxicokinetics and the like were studied.
8) All animals were euthanized on Day 8 (the animals in groups 7 and 14 were euthanized after administration on Day 6).
9) During the experiment, gross anatomy observation was carried out on animals in groups 1 to 7, animals in group 14 and dead animals (including animals in toxicokinetics study), and histopathological examination was carried out on abnormal tissues, gastrointestinal tissues (such as colon and cecum) and immune tissues (such as thymus).

[5] = Pharmacokinetic (PK) assay in mice; assay type: in vivo; settings: male, Balb/c, mouse, plasma, po, single intragastric 5 mg/kg
Procedure: The pharmacokinetic assay of the preferred compounds of the examples of the present invention in mice was carried out in Balb/c male mice (Shanghai Jiesijie Laboratory Animal Co., LTD). • Administration mode: single intragastric administration. • Administration dose: 5 mg/10 ml/kg (body weight). • Formulation: the compound was dissolved in 0.5% CMC-Na by ultrasound to obtain a clear solution or homogeneous suspension. • Sampling points: 0.5, 1, 2, 4, 6, 8 and 24 hours after administration. • Sample process: • 1) 0.1 mL of blood was taken from the orbit, placed in a K2-EDTA tube, and centrifuged for 5 to 20 minutes at room temperature at 1000 to 3000×g to separate the plasma, which was then stored at −80° C. • 2) 160 uL of acetonitrile was added to 40 uL of plasma sample for precipitation, and then the mixture was centrifuged for 5 to 20 minutes at 500 to 2000×g. • 3) 100 uL of processed supernatant was taken and analyzed by LC/MS/MS assay to determine the concentration of the test compound. • LC-MS/MS assay: • Liquid chromatography condition: Shimadzu LC-20AD pump • Mass spectrometry condition: AB Sciex API 4000 mass spectrometer • Chromatographic column: phenomenex Gemiu 5 μm C18 50×4.6 mm • Mobile phase: solution A was 0.1% aqueous formic acid solution, and solution B was acetonitrile • Flow rate: 0.8 mL/min • Elution time: 0-4 minutes gradient elution • Pharmacokinetics: […]
The main parameters were calculated using WinNonlin 6.1.

[6] = Toxicokinetics in the 7-day repeated intragastric administration study in SD rats; assay type: in vivo, Sprague-Dawley (SD) rats; settings: for AUC: Sprague-Dawley, rat, plasma, po, after the last administration, read-out: average system exposure AUC
Text: Liquid chromatography−mass spectrometry (detector: API4000, electrospray source (ESI) positive ion mode, column: Agilent ZORBAX XDB-C18 (3.5 μm, 2.1×50 mm)), which was used for the biological analysis of plasma sample.
as §6, §7, §8, §9, §10

[7] = SD rats, 10, 30 and 60 mg/kg (low, middle, high dose)

T2 sequence (P48736 whole entry): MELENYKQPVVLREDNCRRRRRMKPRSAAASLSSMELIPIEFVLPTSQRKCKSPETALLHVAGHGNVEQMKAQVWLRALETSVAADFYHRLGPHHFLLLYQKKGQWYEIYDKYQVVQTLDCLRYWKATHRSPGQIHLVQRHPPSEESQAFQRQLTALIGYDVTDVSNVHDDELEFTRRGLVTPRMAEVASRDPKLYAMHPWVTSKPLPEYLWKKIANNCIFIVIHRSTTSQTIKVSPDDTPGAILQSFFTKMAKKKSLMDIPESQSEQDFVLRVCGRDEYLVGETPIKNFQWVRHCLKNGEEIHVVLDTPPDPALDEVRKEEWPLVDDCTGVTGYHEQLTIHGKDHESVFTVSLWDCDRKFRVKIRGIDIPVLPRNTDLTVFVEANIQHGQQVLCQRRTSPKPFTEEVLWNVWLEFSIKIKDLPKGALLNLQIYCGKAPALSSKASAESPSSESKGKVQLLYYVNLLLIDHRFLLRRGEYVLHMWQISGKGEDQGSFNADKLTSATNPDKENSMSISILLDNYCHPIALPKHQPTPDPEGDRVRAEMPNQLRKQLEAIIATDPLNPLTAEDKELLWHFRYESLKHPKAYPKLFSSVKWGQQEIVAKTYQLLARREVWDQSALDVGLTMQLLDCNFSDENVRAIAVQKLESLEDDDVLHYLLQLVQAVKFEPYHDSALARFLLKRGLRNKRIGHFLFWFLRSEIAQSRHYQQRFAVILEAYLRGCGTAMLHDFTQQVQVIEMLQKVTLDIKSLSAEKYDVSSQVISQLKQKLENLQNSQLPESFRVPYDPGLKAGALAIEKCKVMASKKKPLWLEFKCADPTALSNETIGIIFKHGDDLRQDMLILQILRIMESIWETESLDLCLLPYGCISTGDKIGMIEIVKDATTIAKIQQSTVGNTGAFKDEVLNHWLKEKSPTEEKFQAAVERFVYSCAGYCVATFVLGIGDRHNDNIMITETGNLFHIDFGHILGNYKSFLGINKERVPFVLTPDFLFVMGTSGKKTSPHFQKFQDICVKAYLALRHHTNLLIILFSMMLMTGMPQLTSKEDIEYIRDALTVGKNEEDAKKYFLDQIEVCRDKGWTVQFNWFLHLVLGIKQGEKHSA
T3 sequence (P42338 whole entry): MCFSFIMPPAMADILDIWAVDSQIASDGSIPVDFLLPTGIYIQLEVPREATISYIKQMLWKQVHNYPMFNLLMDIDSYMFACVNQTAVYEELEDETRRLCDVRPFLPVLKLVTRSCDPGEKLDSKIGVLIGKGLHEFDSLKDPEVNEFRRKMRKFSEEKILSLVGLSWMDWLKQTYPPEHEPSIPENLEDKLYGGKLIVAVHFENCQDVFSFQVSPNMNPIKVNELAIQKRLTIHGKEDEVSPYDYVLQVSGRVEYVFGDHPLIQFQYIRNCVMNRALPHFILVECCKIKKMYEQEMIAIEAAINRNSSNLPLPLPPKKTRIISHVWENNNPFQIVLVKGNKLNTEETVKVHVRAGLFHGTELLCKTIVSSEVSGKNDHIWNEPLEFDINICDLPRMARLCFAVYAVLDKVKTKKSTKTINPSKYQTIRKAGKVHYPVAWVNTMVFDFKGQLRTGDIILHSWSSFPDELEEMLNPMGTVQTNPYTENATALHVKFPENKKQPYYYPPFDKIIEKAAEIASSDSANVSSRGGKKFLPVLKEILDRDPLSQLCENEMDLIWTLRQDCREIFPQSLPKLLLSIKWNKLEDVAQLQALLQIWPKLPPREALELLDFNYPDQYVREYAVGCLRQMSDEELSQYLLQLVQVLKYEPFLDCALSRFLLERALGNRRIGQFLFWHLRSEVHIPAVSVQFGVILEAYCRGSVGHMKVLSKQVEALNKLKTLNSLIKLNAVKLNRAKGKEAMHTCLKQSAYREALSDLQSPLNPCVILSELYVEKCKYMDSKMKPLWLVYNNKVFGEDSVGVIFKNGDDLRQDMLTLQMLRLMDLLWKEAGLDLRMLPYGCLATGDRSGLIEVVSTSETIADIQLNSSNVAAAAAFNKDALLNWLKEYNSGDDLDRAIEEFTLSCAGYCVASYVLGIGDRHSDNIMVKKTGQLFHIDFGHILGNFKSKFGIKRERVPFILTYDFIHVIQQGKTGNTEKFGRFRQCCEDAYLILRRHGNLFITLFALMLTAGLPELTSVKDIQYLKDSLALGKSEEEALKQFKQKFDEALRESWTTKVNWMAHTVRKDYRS
T3 sequence (P27986 whole entry partner): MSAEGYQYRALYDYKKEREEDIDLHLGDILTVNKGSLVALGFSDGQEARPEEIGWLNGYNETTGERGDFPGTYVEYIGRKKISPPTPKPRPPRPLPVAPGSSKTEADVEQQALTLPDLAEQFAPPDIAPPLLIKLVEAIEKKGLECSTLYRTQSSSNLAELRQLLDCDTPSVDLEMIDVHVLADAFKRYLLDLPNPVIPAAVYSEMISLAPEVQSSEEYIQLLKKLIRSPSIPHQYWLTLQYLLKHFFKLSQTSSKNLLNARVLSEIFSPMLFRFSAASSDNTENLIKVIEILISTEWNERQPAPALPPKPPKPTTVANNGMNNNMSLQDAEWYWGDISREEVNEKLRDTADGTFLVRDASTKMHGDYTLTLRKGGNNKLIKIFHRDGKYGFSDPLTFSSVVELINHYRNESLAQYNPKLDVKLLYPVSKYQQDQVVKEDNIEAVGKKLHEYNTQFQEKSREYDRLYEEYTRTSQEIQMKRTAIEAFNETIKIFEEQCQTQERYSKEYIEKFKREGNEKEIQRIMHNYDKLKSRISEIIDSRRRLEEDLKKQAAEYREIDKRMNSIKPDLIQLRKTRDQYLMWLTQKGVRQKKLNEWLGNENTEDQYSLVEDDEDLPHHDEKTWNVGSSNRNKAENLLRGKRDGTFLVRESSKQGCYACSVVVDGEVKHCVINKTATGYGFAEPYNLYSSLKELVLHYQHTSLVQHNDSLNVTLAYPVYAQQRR
T4 sequence (O00329 whole entry): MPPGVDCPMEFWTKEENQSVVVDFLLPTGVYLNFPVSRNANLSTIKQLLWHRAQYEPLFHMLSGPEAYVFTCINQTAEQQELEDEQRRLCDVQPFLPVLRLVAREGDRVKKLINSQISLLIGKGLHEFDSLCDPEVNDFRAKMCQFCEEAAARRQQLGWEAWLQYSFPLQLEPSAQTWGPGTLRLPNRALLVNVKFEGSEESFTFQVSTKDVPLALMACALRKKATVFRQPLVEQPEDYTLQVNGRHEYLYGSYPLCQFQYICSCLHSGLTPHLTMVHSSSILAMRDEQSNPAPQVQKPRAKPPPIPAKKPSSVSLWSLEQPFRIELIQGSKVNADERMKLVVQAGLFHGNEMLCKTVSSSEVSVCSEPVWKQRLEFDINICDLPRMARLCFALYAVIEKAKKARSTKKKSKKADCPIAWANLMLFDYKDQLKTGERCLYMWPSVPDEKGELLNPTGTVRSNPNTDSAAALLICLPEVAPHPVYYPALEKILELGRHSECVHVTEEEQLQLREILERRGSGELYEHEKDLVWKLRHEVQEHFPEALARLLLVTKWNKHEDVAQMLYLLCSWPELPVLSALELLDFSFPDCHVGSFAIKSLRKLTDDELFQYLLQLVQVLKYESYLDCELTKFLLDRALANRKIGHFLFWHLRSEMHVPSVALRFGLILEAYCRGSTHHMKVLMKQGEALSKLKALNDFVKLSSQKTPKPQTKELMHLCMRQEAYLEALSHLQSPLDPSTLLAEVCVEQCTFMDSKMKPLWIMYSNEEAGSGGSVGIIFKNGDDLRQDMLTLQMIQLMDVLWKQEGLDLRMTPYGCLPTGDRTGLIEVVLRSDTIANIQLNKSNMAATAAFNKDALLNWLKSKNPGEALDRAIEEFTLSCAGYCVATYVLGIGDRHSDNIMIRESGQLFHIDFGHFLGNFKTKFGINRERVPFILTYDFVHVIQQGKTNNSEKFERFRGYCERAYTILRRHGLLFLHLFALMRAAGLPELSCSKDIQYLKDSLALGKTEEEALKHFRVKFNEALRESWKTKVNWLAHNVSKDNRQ
T4 sequence (P27986 whole entry partner): as the sequence (P27986 whole entry partner) above
T1 sequence (P42336 whole entry): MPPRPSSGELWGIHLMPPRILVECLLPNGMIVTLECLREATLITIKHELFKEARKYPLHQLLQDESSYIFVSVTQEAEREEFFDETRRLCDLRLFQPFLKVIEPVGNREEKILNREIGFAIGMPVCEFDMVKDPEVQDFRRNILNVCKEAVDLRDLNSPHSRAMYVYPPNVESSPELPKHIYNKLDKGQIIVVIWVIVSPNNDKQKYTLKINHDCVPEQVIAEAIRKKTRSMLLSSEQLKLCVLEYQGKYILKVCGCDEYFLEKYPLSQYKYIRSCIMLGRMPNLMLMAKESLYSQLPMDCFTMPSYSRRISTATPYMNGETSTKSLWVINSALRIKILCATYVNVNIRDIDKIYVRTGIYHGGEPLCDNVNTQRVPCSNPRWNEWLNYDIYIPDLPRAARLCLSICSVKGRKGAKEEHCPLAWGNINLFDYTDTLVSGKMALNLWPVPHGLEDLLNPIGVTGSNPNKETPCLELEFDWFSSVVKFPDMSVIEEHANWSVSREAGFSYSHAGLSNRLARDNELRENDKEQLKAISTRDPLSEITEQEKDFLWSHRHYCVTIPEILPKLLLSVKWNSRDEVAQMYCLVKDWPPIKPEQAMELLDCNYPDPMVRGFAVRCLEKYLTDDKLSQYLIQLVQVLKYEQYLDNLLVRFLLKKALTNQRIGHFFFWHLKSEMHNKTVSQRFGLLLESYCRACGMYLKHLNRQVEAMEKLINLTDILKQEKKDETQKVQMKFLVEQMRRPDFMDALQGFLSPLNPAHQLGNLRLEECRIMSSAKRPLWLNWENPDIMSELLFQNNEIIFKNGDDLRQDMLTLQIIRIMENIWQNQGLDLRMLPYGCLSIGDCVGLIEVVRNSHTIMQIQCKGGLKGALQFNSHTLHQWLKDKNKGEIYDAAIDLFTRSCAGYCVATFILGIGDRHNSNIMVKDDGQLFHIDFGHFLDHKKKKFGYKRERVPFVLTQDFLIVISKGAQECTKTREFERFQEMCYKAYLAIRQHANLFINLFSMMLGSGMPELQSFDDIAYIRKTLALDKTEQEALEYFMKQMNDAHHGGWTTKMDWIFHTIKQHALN
T1 sequence (P27986 whole entry partner): as the sequence (P27986 whole entry partner) above

IC50 [1]: 0.433 µM
IC50 (PI3Kα): 0.0021 µM
Selectivity of PI3Kα vs PI3Kβ (PI3Kα): 1514
Selectivity of PI3Kα vs PI3Kγ (PI3Kα): 158
Selectivity of PI3Kα vs PI3Kδ (PI3Kα): 68
IC50 [2]: 0.601 µM
IC50 (PI3Kγ): 0.332 µM
IC50 (PI3Kβ): 3.18 µM
IC50 (PI3Kδ): 0.142 µM
IC50 [3]: 0.584 µM
Compound: C[C@H](Nc1ccc2c(c1)OCCn1cc(N3C(=O)CN(C)C[C@H]3C(F)F)nc1-2)C(N)=O [Example 69, (S)-2-((2-((S)-2-(difluoromethyl)-4-methyl-6-oxopiperazin-1-yl)-5,6-dihydrobenzo[f]imidazo[1,2-d][1,4]oxazepin-9-yl)amino)propanamide]

Compound: C[C@H](Nc1ccc2c(c1)OCCn1cc(N3C(=O)SC[C@H]3C(F)F)nc1-2)C(N)=O [Example 51, (S)-2-((2-((R)-4-(difluoromethyl)-2-oxothiazolidin-3-yl)-5,6-dihydrobenzo[f]imidazo[1,2-d][1,4]oxazepin-9-yl)amino)propanamide]
main target organs of the toxicity ([4]; SD rats): gastrointestinal tissues (such as stomach and cecum) and immune tissues (such as thymus)
tolerance compared with GDC-0077 ([4]; SD rats): better than that of GDC-0077
Blood biochemistry ([4]; SD rats, 10, 30 and 60 mg/kg): In 60 mg/kg group, AST, Glu and UREA increased in both male and female animals; in 30 mg/kg group, AST and UREA increased in both male and female animals, and Glu increased in male animals; and in 10 mg/kg group, AST increased in both male and female animals
Blood cell counting and coagulation function ([4]; SD rats, 10, 30 and 60 mg/kg): In each dose group, Retic decreased in both male and female animals; and in 30 mg/kg group and 60 mg/kg group, Neut increased and PLT decreased in both male and female animals
Pathology, pathological changes under the microscope ([4]; SD rats, 10, 30 and 60 mg/kg): bleeding and atrophy of glandular gastric mucosa; bleeding of cecal mucosa, atrophy of goblet cell, atrophy of colonic mucosa goblet cell; atrophy of splenic white pulp; and atrophy of thymic cortex or cortex and medulla, increase in tingible body macrophages and the like
Body weight and food intake [4, 7]: In the low-dose, middle-dose and high-dose groups, the final body weight declined, and the corresponding food intake also declined
Clinical observation [4, 7]: In the middle-dose and high-dose groups, abnormal symptoms such as arched back, loose stools, perianal contamination and fluffy coat were observed
Near-death/death ([4]; SD rats, dose of 60 mg/kg): near-dead/dead animals were found
lethal dose ([4]; SD rats, intragastric once/day for 7 days): 60 mg/kg
MTD at 7 days ([4]; both sexes, Sprague-Dawley, rat, in vivo, po, SD rats, intragastric once/day for 7 days, read-out: maximum tolerated dose (MTD)): 30 mg/kg
IC50 (PI3Kα): 0.0002 µM
Selectivity of PI3Kα vs PI3Kβ (PI3Kα): 840
Selectivity of PI3Kα vs PI3Kγ (PI3Kα): 450
Selectivity of PI3Kα vs PI3Kδ (PI3Kα): 245
IC50 (PI3Kγ): 0.09 µM
IC50 (PI3Kβ): 0.168 µM
AUC(0-t) ([5]; read-out: Area under curve AUC0-t): 2180 ng·h/mL
AUC(0-inf) ([5]; read-out: Area under curve AUC0-∞): 2270 ng·h/mL
half-life ([5]; read-out: Half-life t1/2(h) (converted)): 1.6 h
MRT ([5]; read-out: Mean residence time MRT): 2.2 h
Tmax ([5]; read-out: Peak time tmax): 0.5 h
Cmax ([5]; read-out: Plasma concentration Cmax): 1060 ng/mL
IC50 (PI3Kδ): 0.049 µM
Cmax and AUC(0-24h) compared with GDC-0077 ([6]; 30 mg/kg): significantly higher than those of GDC-0077
AUC ([6]; 10 mg/kg intragastric once a day, female): 3170 ng·h/mL
AUC ([6]; 10 mg/kg intragastric once a day, male): 2110 ng·h/mL
AUC ([6]; 30 mg/kg intragastric once a day, female): 15900 ng·h/mL
AUC ([6]; 30 mg/kg intragastric once a day, male): 11400 ng·h/mL
system exposure compared with GDC-0077 ([6]; same dose): significantly higher than that of GDC-0077 at the same dose

IC50 [1]: 0.358 µM
IC50 (PI3Kα): 0.0024 µM
Selectivity of PI3Kα vs PI3Kβ (PI3Kα): 170
Selectivity of PI3Kα vs PI3Kγ (PI3Kα): 48
Selectivity of PI3Kα vs PI3Kδ (PI3Kα): 30
IC50 [2]: 0.134 µM
IC50 (PI3Kγ): 0.116 µM
IC50 (PI3Kβ): 0.407 µM
IC50 (PI3Kδ): 0.071 µM
IC50 [3]: 0.304 µM
Compound: C[C@H](Nc1ccc2c(c1)OCCn1cc(N3C(=O)SC[C@H]3CC#N)nc1-2)C(N)=O [Example 119, (S)-2-((2-((R)-4-(cyanomethyl)-2-oxothiazolidin-3-yl)-5,6-dihydrobenzo[f]imidazo[1,2-d][1,4]oxazepin-9-yl)amino)propanamide]
